{"source": "ChEMBL document CHEMBL1671852", "about": "“In vitro activities of linezolid against clinical isolates of Mycobacterium tuberculosis complex isolated in Taiwan over 10 years” (2008)", "key": {"[1]": {"system": "Mycobacterium tuberculosis", "assay": "Antibacterial activity against multidrug-resistant Mycobacterium tuberculosis harboring gyrA D94A mutation by agar proportion method", "type": "functional"}, "[2]": {"system": "Mycobacterium tuberculosis", "assay": "Antibacterial activity against multidrug-resistant Mycobacterium tuberculosis by agar proportion method", "type": "functional"}}}
{"smiles": "CC(=O)NC[C@H]1CN(c2ccc(N3CCOCC3)c(F)c2)C(=O)O1", "note": "[LINEZOLID]", "values": [{"measurement": "MIC", "setting": "[1]", "value": 4, "unit": "µg/mL"}, {"measurement": "MIC50", "setting": "[2]", "value": 0.5, "unit": "µg/mL"}, {"measurement": "MIC90", "setting": "[2]", "value": 0.5, "unit": "µg/mL"}]}
